From ChEMBL document CHEMBL3046723, “Ionic liquids with herbicidal anions” (Tetrahedron, 2011) come the findings set out here.

The source made the active and inactive calls. The calls are words filed in the database; no cut-off is given here.

Data set [1] can be described thus: Acute toxicity in po dosed Rattus norvegicus Wistar (rat). It counts as organism-based. The conditions noted are these: in vivo.
Data set [2] deals with Thlaspi arvense. Put plainly: Herbicidal activity against Thlaspi arvense in winter wheat crop field at 900 g/ha applied at the end of tillering stage of crop measured at 4 weeks post-drug dosage. It counts as functional.
Data set [3] has as its system Triticum aestivum. The experiment in a line: Increase in winter Triticum aestivum (wheat) crop yield assessed as protein content at 900 g/ha applied at the end of tillering stage of crop measured at 4 weeks post-drug dosage (reference value: 11.12%). It counts as functional.
Data set [4] relates to Triticum aestivum. The experiment in a line: Increase in winter Triticum aestivum (wheat) crop yield at 900 g/ha applied at the end of tillering stage of crop measured at 4 weeks post-drug dosage (reference value: 7.40 t/ha). It counts as functional.
Data set [5] relates to Triticum aestivum. The experiment in a line: Increase in winter Triticum aestivum (wheat) crop yield assessed as weight of 1000 grains at 900 g/ha applied at the end of tillering stage of crop measured at 4 weeks post-drug dosage (reference value: 37.79 g). It counts as functional.
Data set [6] has as its system Matricaria. Put plainly: Herbicidal activity against Matricaria inodora in winter wheat crop field at 900 g/ha applied at the end of tillering stage of crop measured at 4 weeks post-drug dosage. In kind it is functional.
Data set [7] concerns Triticum aestivum. The experiment in a line: Increase in winter Triticum aestivum (wheat) crop yield assessed as gluten content at 900 g/ha applied at the end of tillering stage of crop measured at 4 weeks post-drug dosage (reference value: 25.95%). It counts as functional.
For data set [8], the system named is Consolida regalis. Put plainly: Herbicidal activity against Consolida regalis in winter wheat crop field at 900 g/ha applied at the end of tillering stage of crop measured at 4 weeks post-drug dosage. In kind it is functional.
Data set [9] concerns Brassica napus. The experiment in a line: Herbicidal activity against Brassica napus (oilseed rape) in winter wheat crop field at 900 g/ha applied at the end of tillering stage of crop measured at 4 weeks post-drug dosage. In kind it is functional.
Data set [10] deals with Consolida regalis. The experiment in a line: Herbicidal activity against Consolida regalis in winter wheat crop field at 600 g/ha applied at the end of tillering stage of crop measured at 4 weeks post-drug dosage. It counts as functional.
For data set [11], the system named is Thlaspi arvense. The experiment in a line: Herbicidal activity against Thlaspi arvense in winter wheat crop field at 600 g/ha applied at the end of tillering stage of crop measured at 4 weeks post-drug dosage. In kind it is functional.
For data set [12], the system named is Triticum aestivum. The experiment in a line: Increase in winter Triticum aestivum (wheat) crop yield assessed as protein content at 600 g/ha applied at the end of tillering stage of crop measured at 4 weeks post-drug dosage (reference value: 11.12%). It counts as functional.
Data set [13] relates to Triticum aestivum. The experiment in a line: Increase in winter Triticum aestivum (wheat) crop yield assessed as weight of 1000 grains at 600 g/ha applied at the end of tillering stage of crop measured at 4 weeks post-drug dosage (reference value: 37.79 g). It counts as functional.
In data set [14] the test system is Matricaria. The experiment in a line: Herbicidal activity against Matricaria inodora in winter wheat crop field at 600 g/ha applied at the end of tillering stage of crop measured at 4 weeks post-drug dosage. It counts as functional.
In data set [15] the test system is Triticum aestivum. Put plainly: Increase in winter Triticum aestivum (wheat) crop yield at 600 g/ha applied at the end of tillering stage of crop measured at 4 weeks post-drug dosage (reference value: 7.40 t/ha). It counts as functional.
The subject of data set [16] is Triticum aestivum. Put plainly: Increase in winter Triticum aestivum (wheat) crop yield assessed as gluten content at 600 g/ha applied at the end of tillering stage of crop measured at 4 weeks post-drug dosage (reference value: 25.95%). It counts as functional.
For data set [17], the system named is Brassica napus. Put plainly: Herbicidal activity against Brassica napus (oilseed rape) in winter wheat crop field at 600 g/ha applied at the end of tillering stage of crop measured at 4 weeks post-drug dosage. In kind it is functional.
For data set [18], the system named is Brassica napus. The experiment in a line: Herbicidal activity against Brassica napus (oilseed rape) measured at 4 weeks post-drug dosage. It counts as functional, organism-based.
For data set [19], the system named is Triticum aestivum. Put plainly: Reduction in Triticum aestivum (wheat) stem length applied at the end of tillering stage of crop measured at 4 weeks post-drug dosage. It counts as functional, organism-based.
Data set [20] concerns Euphorbia helioscopia. Put plainly: Herbicidal activity against Euphorbia helioscopia measured at 4 weeks post-drug dosage. It counts as functional, organism-based.
Data set [21] deals with Viola arvensis. The experiment in a line: Herbicidal activity against Viola arvensis measured at 4 weeks post-drug dosage. In kind it is functional, organism-based.
For data set [22], the system named is Centaurea cyanus. The experiment in a line: Herbicidal activity against Centaurea cyanus measured at 4 weeks post-drug dosage. In kind it is functional, organism-based.
Data set [23] concerns Myosotis arvensis. Put plainly: Herbicidal activity against Myosotis arvensis measured at 4 weeks post-drug dosage. In kind it is functional, organism-based.
For data set [24], the system named is Thlaspi arvense. Put plainly: Herbicidal activity against Thlaspi arvense measured at 4 weeks post-drug dosage. It counts as functional, organism-based.
The subject of data set [25] is Chenopodium album. Put plainly: Herbicidal activity against Chenopodium album measured at 4 weeks post-drug dosage. It counts as functional, organism-based.

`C[N+](C)(C)CCl.Cc1cc(Cl)ccc1OCC(=O)[O-]` [listing 1 of 2 here] had an LD50 in [1] of 300 mg/kg.

In data set [1], `Cc1cc(Cl)ccc1OCC(=O)O` [METAXON] yielded an LD50 of 962 mg/kg.

For `Cc1cc(Cl)ccc1OCC(=O)[O-].[Na+]`, the Activity was 100% in data set [2]; 11.08% in data set [3]; 39.3 g in data set [5]; 56% in [6]; 27.33% in data set [7]; 96% in data set [8]. The same compound came in with an Activity in [9] of 100%. Also, in [4], the Crop_yield was 7.81 tons/ha.

As to `CCCCCCCCCC[N+](C)(C)CCCCCCCCCC.Cc1cc(Cl)ccc1OCC(=O)[O-]`, the LD50 in data set [1] came out at 300 mg/kg.

On to `CCCCC(CC)OC(=O)COc1ccc(Cl)cc1C` (centres undefined), for which the Activity was determined as 95% in data set [10]; 100% in data set [11]; 11.03% in [12]; 39.78 g in [13]; 62% in data set [14]; 27.12% in [16]. In data set [17], this compound gave an Activity of 100%. The compound further gave a 50% lethal dose (LD50) in [1] of 1300 mg/kg. In addition, the Crop_yield in data set [15] came to 7.8 tons/ha.

Take `C[N+](C)(C)CCl.Cc1cc(Cl)ccc1OCC(=O)[O-]` [listing 2 of 2 here]: the result in data set [18], in data set [20], in data set [21], in data set [22], in [23] and in data set [24] was Active. Also, the outcome in [25] was Active. In addition, the inhibition result in data set [19] was “Active”.

In [1], `C[N+](C)(C)CCCl.[Cl-]` [CHLORMEQUAT CHLORIDE] showed a 50% lethal dose (LD50) of 1300 mg/kg.
